{"source": "paper PMC4129416", "about": "“YLT192, a Novel, Orally Active Bioavailable Inhibitor of VEGFR2 Signaling with Potent Antiangiogenic Activity and Antitumor Efficacy in Preclinical Models” (Scientific Reports, 2014)", "key": {"[1]": {"test_system": "HCT116", "experiment": "Inhibition of tumor cell growth", "assay_type": "cell-based", "details": "HCT-116; HCT116, human colorectal carcinoma; 48 hour treatment; means ± SD, n=3", "source_text": "Data are means ± SD, n=3.\ncell line cell type IC50(μM)"}, "[2]": {"test_system": "HUVEC", "experiment": "Wound healing migration assay", "assay_type": "cell-based, human", "details": "24 hours", "source_text": "Cell migration is essential for ECs in angiogenesis and for cancer cells in tumor growth and metastasis. […] Cell invasion is essential for EC in angiogenesis, so we performed transwell assays to evaluate the ability of HUVEC to pass through the Matrigel and membrane barriers of the transwell in the presence of various concentrations of YLT192 or vehicle.\nFigure 2 Effects of YLT192 on HUVECs proliferation, migration, invasion and tube formation. […] Cells were wounded by the pipette and then treated with various concentrations of compounds for 24 hours. Migrated cells were quantified by manual counting (50×). […] The bottom chambers of the transwells were filled with 600 μL EGM2 containing various growth factors while the top chambers were seeded with 4 × 10^4 HUVECs in EBM2 and treated with different concentrations of compounds for 24 hours. Cells invaded through the membrane were stained and quantified (100×). […] HUVECs were seeded on Matrigel layer and treated with different concentrations of compounds. HUVECs tube formation was assessed 6 hours later (50×). One representative experiment of three is shown. For (A), (B) and (C), data represent the mean ± SEM of three different experiments. Each experiment was performed in duplicate.*P < 0.05, **P < 0.01. (D) YLT192 inhibited VEGF-induced phosphorylation of VEGFR2 and its downstream signal regulator p44/42 MAPK, STAT3 and AKT in HUVECs. One representative Western blot of three is presented. Each has the expression of β-actin as internal control. The full size blots were shown in the Supplemental Figure S5 online. (E) Cellular thermal shift assay showing VEGFR2 target engagement by YLT192 in intact HUVECs. One representative Western blot of two is presented. The full size blots were shown in the Supplemental Figure S6 online. […]\nHUVECs were allowed to grow into full confluence in 24-well plates and then wounded by scratching with pipette tips and washed with PBS. […] Images were taken using a ZEISS digital microscope and invading cells were counted by manual counting. […]"}, "[3]": {"test_system": "NIH-H1975", "experiment": "Inhibition of tumor cell growth", "assay_type": "cell-based", "details": "NIH-H1975, human lung cancer; 48 hour treatment; means ± SD, n=3", "method": "(§1) The proliferative inhibitory ability of YLT192 on tumor cells was investigated. […] Inhibition of cell proliferation is a possible approach for cancer treatment. EdU incorporation assay was performed to investigate the anti-proliferative effects of YLT192 against U251 and HCT116 cells. […]\n(§2) treatment with YLT192. Data are means ± SD, n=3. cell line cell type IC50(μM)\n(§3) HCT116 human colorectal carcinoma 7.4 ±0.5\n(§4) A431 human pidermoid carcinoma 7.7 ±0.9\n(§5) BxPC-3 human pancreatic cancer 8.2 ±0.6\n(§6) Hep G2 human hepatocellular carcinoma 7.9 ±0.5\n(§7) SW620 human colorectal carcinoma 7.9 ±1.7\n(§8) SKOV-3 human ovarian carcinoma 8.2 ±1.5\n(§9) LS147T human colorectal carcinoma 9.0 ±1.1\n(§10) PANC-1 human pancreatic cancer 9.8 ±1.9\n(§11) BEL7402 human hepatocellular carcinoma 11.3 ±1.1\n(§12) MDA-MB-231 human mammary carcinoma 11.9 ±2.1\n(§13) SMMC-7721 human hepatocellular carcinoma 12.1 ±1.6\n(§14) SPC-A1 human lung cancer 16.4 ±1.4\n(§15) MCF-7 human mammary carcinoma 16.8 ±1.7\n(§16) Hela human epithelial carcinoma 18.9 ±2.4\n(§17) MV4-11 human acute myeloid leukemia 21.9 ±1.9\n(§18) COLO-205 human colorectal carcinoma 23.0 ±1.5"}, "[4]": {"test_system": "U251", "experiment": "Inhibition of tumor cell growth", "assay_type": "cell-based", "details": "U-251; U251, human glioblastoma; 48 hour treatment; means ± SD, n=3", "method": "as §1, §2, §3, §4, §5, §6, §7, §8, §9, §10, §11, §12, §13, §14, §15, §16, §17, §18"}, "[5]": {"test_system": "DU145", "experiment": "Inhibition of tumor cell growth", "assay_type": "cell-based", "details": "DU-145; DU145, human prostate cancer; 48 hour treatment; means ± SD, n=3", "method": "as §1, §2, §3, §4, §5, §6, §7, §8, §9, §10, §11, §12, §13, §14, §15, §16, §17, §18"}, "[6]": {"test_system": "A375", "experiment": "Inhibition of tumor cell growth", "assay_type": "cell-based", "details": "A-375; A375, human melanoma; 48 hour treatment; means ± SD, n=3", "method": "as §1, §2, §3, §4, §5, §6, §7, §8, §9, §10, §11, §12, §13, §14, §15, §16, §17, §18"}, "[7]": {"test_system": "B16", "experiment": "Inhibition of tumor cell growth", "assay_type": "cell-based", "details": "B16, mouse melanoma; 48 hour treatment; means ± SD, n=3", "method": "as §1, §2, §3, §4, §5, §6, §7, §8, §9, §10, §11, §12, §13, §14, §15, §16, §17, §18"}, "[8]": {"target": "VEGFR2 (Homo sapiens, UniProt P35968)", "sequence (P35968 20-1356)": "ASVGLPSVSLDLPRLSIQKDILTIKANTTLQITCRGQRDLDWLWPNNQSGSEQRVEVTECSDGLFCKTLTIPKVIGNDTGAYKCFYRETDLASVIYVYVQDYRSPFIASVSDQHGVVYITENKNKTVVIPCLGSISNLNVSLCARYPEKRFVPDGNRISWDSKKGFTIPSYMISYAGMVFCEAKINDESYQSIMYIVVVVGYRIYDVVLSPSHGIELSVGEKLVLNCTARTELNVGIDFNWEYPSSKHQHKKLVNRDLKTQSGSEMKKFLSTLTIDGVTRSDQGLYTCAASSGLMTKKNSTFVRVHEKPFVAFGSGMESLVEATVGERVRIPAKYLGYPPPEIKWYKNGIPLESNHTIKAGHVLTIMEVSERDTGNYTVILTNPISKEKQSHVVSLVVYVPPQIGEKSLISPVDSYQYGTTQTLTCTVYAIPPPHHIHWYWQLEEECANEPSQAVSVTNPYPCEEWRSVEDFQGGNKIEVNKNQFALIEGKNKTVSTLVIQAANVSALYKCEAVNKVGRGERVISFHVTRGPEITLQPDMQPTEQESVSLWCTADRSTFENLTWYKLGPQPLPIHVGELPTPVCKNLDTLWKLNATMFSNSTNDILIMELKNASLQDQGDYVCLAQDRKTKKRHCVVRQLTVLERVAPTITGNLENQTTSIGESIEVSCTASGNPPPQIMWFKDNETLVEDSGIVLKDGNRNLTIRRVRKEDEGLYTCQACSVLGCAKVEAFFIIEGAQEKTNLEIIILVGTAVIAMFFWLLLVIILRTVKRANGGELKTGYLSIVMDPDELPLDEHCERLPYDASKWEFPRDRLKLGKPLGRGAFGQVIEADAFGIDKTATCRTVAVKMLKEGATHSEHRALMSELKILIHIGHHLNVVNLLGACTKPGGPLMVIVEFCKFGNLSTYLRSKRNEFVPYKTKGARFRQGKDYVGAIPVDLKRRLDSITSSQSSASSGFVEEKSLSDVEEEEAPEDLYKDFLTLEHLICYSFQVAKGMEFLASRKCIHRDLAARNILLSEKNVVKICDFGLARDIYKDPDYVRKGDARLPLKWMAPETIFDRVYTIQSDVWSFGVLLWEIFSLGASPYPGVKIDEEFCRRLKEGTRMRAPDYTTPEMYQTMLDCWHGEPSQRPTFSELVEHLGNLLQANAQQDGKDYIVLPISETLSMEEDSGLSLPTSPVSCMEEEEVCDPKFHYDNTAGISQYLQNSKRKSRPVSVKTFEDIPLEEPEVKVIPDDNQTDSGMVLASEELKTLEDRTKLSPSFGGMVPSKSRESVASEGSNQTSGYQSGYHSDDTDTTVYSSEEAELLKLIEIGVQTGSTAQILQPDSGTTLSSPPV", "experiment": "Radiometric kinase assay (Millipore Kinase Profile Service)", "assay_type": "biochemical", "design": "purchased Millipore (Kinase Profile Service, UK)", "details": "means ± SD, two independent experiments, read-out: inhibition rate at 1 μM (%)", "method": "YLT192 was designed and synthesized in the State Key Laboratory of Biotherapy, Sichuan University (Sichuan, China). Its structural formula and synthesis route was shown in Fig. 1A and Supplementary Figure S1, respectively. The kinase inhibitory activity of YLT192 was measured by the use of radiometric assays provided by Kinase Profile Service (Millipore, UK). The effects of YLT192 on kinase activity were detected using the scintillation proximity assay method at an enzymatic level. […] In addition, the inhibitory activity of YLT192 was examined against platelet-derived growth factor receptor (PDGFR)-related kinases because of their structural similarity to the VEGFR2. […] Moreover, excellent selectivity for VEGFR2 was evident compared with a range of unrelated tyrosine and serine/threonine kinases, including fibroblast growth factor receptor 3, polo-like kinase 1, aurora-A, Axl, MET, protein kinase A, c-RAF etc."}, "[9]": {"test_system": "tumor cells", "experiment": "Cancer cell viability assays, whole panel", "assay_type": "cell-based"}}, "note": "Read-outs that look alike come from different tables or passages of the source.", "data": [{"smiles": "CNC(=O)c1cc(Oc2ccc(NC(=O)c3cccc(OC)c3)cc2)ccn1", "note": "[YLT192]", "values": [{"measurement": "IC50", "setting": "[1]", "result": "7.4 ± 0.5", "unit": "µM"}, {"measurement": "migration of HUVEC", "setting": "[2]; 2.5 μM, wound healing", "result": "strongly inhibited"}, {"measurement": "HUVECs migration in wound healing assay", "setting": "[2]; various concentrations", "result": "inhibited HUVECs migration"}, {"measurement": "IC50", "setting": "[3]", "result": "27.3 ± 1.2", "unit": "µM"}, {"measurement": "IC50", "setting": "[4]", "result": "6.5 ± 0.8", "unit": "µM"}, {"measurement": "IC50", "setting": "[5]", "result": "22.8 ± 2.6", "unit": "µM"}, {"measurement": "IC50", "setting": "[6]", "result": "12.4 ± 1.1", "unit": "µM"}, {"measurement": "IC50", "setting": "[7]", "result": "21.2 ± 2.1", "unit": "µM"}, {"measurement": "inhibition at 1 µM", "setting": "[8]", "result": "93 ± 3", "unit": "%"}, {"measurement": "IC50", "setting": "[9]; range for most tumor cell lines of the panel, read-out: Most IC50 against the tumor cells", "result": "6 to 20", "unit": "µM"}, {"measurement": "IC50", "setting": "[9]; range over the cancer cell panel, read-out: IC50 values in cancer cell viability assays", "result": "6 to 30", "unit": "µM"}]}]}
